This experiment concerns C57BL/6 male mice. In words: In vivo delivery study of lipid nucleic acid mixture (oral gavage, RT-qPCR of PGY-sRNA-26 in tissues). Also noted: species or system mouse. The note with it: for oral delivery of single-stranded sRNA nucleic acids into mouse brain tissue / oral delivery of single-stranded sRNA nucleic acids into mouse femur / oral delivery of single-stranded sRNA nucleic acids into mouse intestinal tissue / oral delivery of single-stranded sRNA nucleic acids into mouse liver tissue / oral delivery of single-stranded sRNA nucleic acids into mouse lung tissue / oral delivery of single-stranded sRNA nucleic acids into mouse blood / oral delivery of single-stranded sRNA nucleic acids into mouse kidney tissue / oral delivery of single-stranded sRNA nucleic acids into mouse spleen tissue / oral delivery of single-stranded sRNA nucleic acids into mouse stomach tissue / oral delivery of single-stranded sRNA nucleic acids into mouse heart tissue: 100 μg lipid:10 nmol PGY-sRNA-26, sampled after 12 hours; for oral delivery of single-stranded sRNA nucleic acids into mouse intestinal tissue: intestine; for oral delivery of single-stranded sRNA nucleic acids into mouse heart tissue: vs free uptake group; for overall delivery efficacy: delivering nucleic acids into each tissue and blood tested: 100 μg lipid:10 nmol PGY-sRNA-26, all tissues and blood tested. The essentials:
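Stem-loop RT and SYBR qPCR, normalized to U6, measured PGY-sRNA-26 in blood and organs 12 h after gavage. Dosing was 10 nmol sRNA with 100 μg lipid, pre-mixed and heated 15 min at 90 °C, in 12-h-fasted mice, against saline and free-sRNA groups.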
(In general: Real-time PCR tracks product formation cycle by cycle.)

On to `CC/C=C/C=C/C=O` [Lipid 618, (2E,4E)-hepta-2,4-dienal], for which the “oral delivery of single-stranded sRNA nucleic acids into mouse brain tissue” value was “can effectively orally deliver”, the “oral delivery of single-stranded sRNA nucleic acids into mouse femur” value is “can effectively orally deliver”, the “oral delivery of single-stranded sRNA nucleic acids into mouse intestinal tissue” value is recorded as “can effectively orally deliver” and the “oral delivery of single-stranded sRNA nucleic acids into mouse liver tissue” value is listed as “can effectively orally deliver”. The “oral delivery of single-stranded sRNA nucleic acids into mouse lung tissue” value was “can effectively orally deliver”.

For `C=CC(=O)CCCCC` [Lipid 619, oct-1-en-3-one], the “oral delivery of single-stranded sRNA nucleic acids into mouse blood” value is “can effectively orally deliver”, the “oral delivery of single-stranded sRNA nucleic acids into mouse brain tissue” value is given as “can effectively orally deliver”, the “oral delivery of single-stranded sRNA nucleic acids into mouse femur” value is “can effectively orally deliver” and the “oral delivery of single-stranded sRNA nucleic acids into mouse intestinal tissue” value was “can effectively orally deliver”. Also, the “oral delivery of single-stranded sRNA nucleic acids into mouse kidney tissue” value was “can effectively orally deliver”, the “oral delivery of single-stranded sRNA nucleic acids into mouse liver tissue” value is recorded as “can effectively orally deliver”, the “oral delivery of single-stranded sRNA nucleic acids into mouse spleen tissue” value is recorded as “can effectively orally deliver” and the “oral delivery of single-stranded sRNA nucleic acids into mouse stomach tissue” value is reported as “can effectively orally deliver”.

In the case of `CCCCC/C=C\C/C=C\C/C=C\C/C=C\CCCC(=O)O` [Lipid 620, (5Z,8Z,11Z,14Z)-icosa-5,8,11,14-tetraenoic acid], the “oral delivery of single-stranded sRNA nucleic acids into mouse brain tissue” value is given as “can effectively orally deliver”, the “oral delivery of single-stranded sRNA nucleic acids into mouse femur” value was “can effectively orally deliver”, the “oral delivery of single-stranded sRNA nucleic acids into mouse heart tissue” value is listed as “can effectively orally deliver” and the “oral delivery of single-stranded sRNA nucleic acids into mouse intestinal tissue” value is “can effectively orally deliver”. In addition, the “oral delivery of single-stranded sRNA nucleic acids into mouse kidney tissue” value is given as “can effectively orally deliver”, the “oral delivery of single-stranded sRNA nucleic acids into mouse liver tissue” value is reported as “can effectively orally deliver”, the “oral delivery of single-stranded sRNA nucleic acids into mouse lung tissue” value is “can effectively orally deliver” and the “oral delivery of single-stranded sRNA nucleic acids into mouse spleen tissue” value is “can effectively orally deliver”. Also, the “oral delivery of single-stranded sRNA nucleic acids into mouse stomach tissue” value is “can effectively orally deliver”.

Consider `CC=CC(C)=O` [Lipid 621], for which the “oral delivery of single-stranded sRNA nucleic acids into mouse blood” value is “can effectively orally deliver”, the “oral delivery of single-stranded sRNA nucleic acids into mouse brain tissue” value is “can effectively orally deliver”, the “oral delivery of single-stranded sRNA nucleic acids into mouse femur” value is given as “can effectively orally deliver” and the “oral delivery of single-stranded sRNA nucleic acids into mouse heart tissue” value is “can effectively orally deliver”. Also, the “oral delivery of single-stranded sRNA nucleic acids into mouse intestinal tissue” value is “can effectively orally deliver”, the “oral delivery of single-stranded sRNA nucleic acids into mouse liver tissue” value was “can effectively orally deliver”, the “oral delivery of single-stranded sRNA nucleic acids into mouse lung tissue” value was “can effectively orally deliver” and the “oral delivery of single-stranded sRNA nucleic acids into mouse stomach tissue” value is listed as “can effectively orally deliver”.

In the case of `CCCC(=O)CC(=O)N[C@H]1CCOC1=O` [Lipid 622, 3-oxo-N-[(3S)-2-oxooxolan-3-yl]hexanamide], the “oral delivery of single-stranded sRNA nucleic acids into mouse blood” value is reported as “can effectively orally deliver”, the “oral delivery of single-stranded sRNA nucleic acids into mouse brain tissue” value is on record as “can effectively orally deliver”, the “oral delivery of single-stranded sRNA nucleic acids into mouse femur” value is recorded as “can effectively orally deliver” and the “oral delivery of single-stranded sRNA nucleic acids into mouse intestinal tissue” value is reported as “can effectively orally deliver”. Besides, the “oral delivery of single-stranded sRNA nucleic acids into mouse liver tissue” value was “can effectively orally deliver”, the “oral delivery of single-stranded sRNA nucleic acids into mouse lung tissue” value is “can effectively orally deliver”, the “oral delivery of single-stranded sRNA nucleic acids into mouse spleen tissue” value is given as “can effectively orally deliver” and the “oral delivery of single-stranded sRNA nucleic acids into mouse stomach tissue” value is reported as “can effectively orally deliver”.

Take `O=C(O)CC(=O)C(=O)O` [Lipid 623, 2-oxobutanedioic acid]: the “oral delivery of single-stranded sRNA nucleic acids into mouse blood” value is reported as “can effectively orally deliver”, the “oral delivery of single-stranded sRNA nucleic acids into mouse brain tissue” value is reported as “can effectively orally deliver”, the “oral delivery of single-stranded sRNA nucleic acids into mouse femur” value is on record as “can effectively orally deliver” and the “oral delivery of single-stranded sRNA nucleic acids into mouse heart tissue” value is given as “can effectively orally deliver”. For the same molecule, the “oral delivery of single-stranded sRNA nucleic acids into mouse intestinal tissue” value is listed as “can effectively orally deliver”, the “oral delivery of single-stranded sRNA nucleic acids into mouse kidney tissue” value is on record as “can effectively orally deliver”, the “oral delivery of single-stranded sRNA nucleic acids into mouse liver tissue” value is recorded as “can effectively orally deliver” and the “oral delivery of single-stranded sRNA nucleic acids into mouse spleen tissue” value is on record as “can effectively orally deliver”. Further, the “oral delivery of single-stranded sRNA nucleic acids into mouse stomach tissue” value is “can effectively orally deliver”.

As for `CCCCCCCCCCCCCCCCCCCC(=O)O` [Lipid 624, icosanoic acid], the “oral delivery of single-stranded sRNA nucleic acids into mouse brain tissue” value is recorded as “can effectively orally deliver”, the “oral delivery of single-stranded sRNA nucleic acids into mouse femur” value is listed as “can effectively orally deliver”, the “oral delivery of single-stranded sRNA nucleic acids into mouse heart tissue” value was “can effectively orally deliver” and the “oral delivery of single-stranded sRNA nucleic acids into mouse intestinal tissue” value was “can effectively orally deliver”. Also, the “oral delivery of single-stranded sRNA nucleic acids into mouse liver tissue” value was “can effectively orally deliver”, the “oral delivery of single-stranded sRNA nucleic acids into mouse lung tissue” value is on record as “can effectively orally deliver” and the “oral delivery of single-stranded sRNA nucleic acids into mouse stomach tissue” value was “can effectively orally deliver”.

`N[C@H](CCCC(=O)O)C(=O)O` [Lipid 625, (2R)-2-aminohexanedioic acid]: the “overall delivery efficacy: delivering nucleic acids into each tissue and blood tested” value is on record as “best delivery efficacy”; the “oral delivery of single-stranded sRNA nucleic acids into mouse blood” value is recorded as “can effectively orally deliver”; the “oral delivery of single-stranded sRNA nucleic acids into mouse brain tissue” value is “can effectively orally deliver”; the “oral delivery of single-stranded sRNA nucleic acids into mouse femur” value is “can effectively orally deliver”. Besides, the “oral delivery of single-stranded sRNA nucleic acids into mouse heart tissue” value was “can effectively orally deliver”, the “oral delivery of single-stranded sRNA nucleic acids into mouse intestinal tissue” value was “can effectively orally deliver”, the “oral delivery of single-stranded sRNA nucleic acids into mouse kidney tissue” value is recorded as “can effectively orally deliver” and the “oral delivery of single-stranded sRNA nucleic acids into mouse liver tissue” value is “can effectively orally deliver”. Also, the “oral delivery of single-stranded sRNA nucleic acids into mouse lung tissue” value is on record as “can effectively orally deliver”, the “oral delivery of single-stranded sRNA nucleic acids into mouse spleen tissue” value was “can effectively orally deliver” and the “oral delivery of single-stranded sRNA nucleic acids into mouse stomach tissue” value is on record as “can effectively orally deliver”.

For the molecule `C=C(CC(=O)O)C(=O)O` [Lipid 626, 2-methylidenebutanedioic acid], the “oral delivery of single-stranded sRNA nucleic acids into mouse blood” value is “can effectively orally deliver”, the “oral delivery of single-stranded sRNA nucleic acids into mouse brain tissue” value is listed as “can effectively orally deliver”, the “oral delivery of single-stranded sRNA nucleic acids into mouse femur” value was “can effectively orally deliver” and the “oral delivery of single-stranded sRNA nucleic acids into mouse heart tissue” value is given as “can effectively orally deliver”. The “oral delivery of single-stranded sRNA nucleic acids into mouse intestinal tissue” value is “can effectively orally deliver”, the “oral delivery of single-stranded sRNA nucleic acids into mouse kidney tissue” value was “can effectively orally deliver”, the “oral delivery of single-stranded sRNA nucleic acids into mouse liver tissue” value is on record as “can effectively orally deliver” and the “oral delivery of single-stranded sRNA nucleic acids into mouse lung tissue” value is “can effectively orally deliver”.

As to `O=C(O)CCC(=O)O` [Lipid 628, butanedioic acid], the “overall delivery efficacy: delivering nucleic acids into each tissue and blood tested” value is recorded as “best delivery efficacy”; the “oral delivery of single-stranded sRNA nucleic acids into mouse blood” value is “can effectively orally deliver”; the “oral delivery of single-stranded sRNA nucleic acids into mouse brain tissue” value is given as “can effectively orally deliver”; the “oral delivery of single-stranded sRNA nucleic acids into mouse femur” value is listed as “can effectively orally deliver”. Besides, the “oral delivery of single-stranded sRNA nucleic acids into mouse heart tissue” value was “can effectively orally deliver”, the “oral delivery of single-stranded sRNA nucleic acids into mouse intestinal tissue” value is “can effectively orally deliver”, the “oral delivery of single-stranded sRNA nucleic acids into mouse kidney tissue” value is “can effectively orally deliver” and the “oral delivery of single-stranded sRNA nucleic acids into mouse liver tissue” value was “can effectively orally deliver”. Also, the “oral delivery of single-stranded sRNA nucleic acids into mouse lung tissue” value is recorded as “can effectively orally deliver”, the “oral delivery of single-stranded sRNA nucleic acids into mouse spleen tissue” value was “can effectively orally deliver” and the “oral delivery of single-stranded sRNA nucleic acids into mouse stomach tissue” value was “can effectively orally deliver”.

For the origin of these results see patent US20250073255A1, “USE OF FA-TYPE LIPID COMPOUNDS IN PREPARATION OF NUCLEIC ACID DELIVERY REAGENT AND RELATED PRODUCT” (BEIJING BAISHIKANG PHARMACEUTICAL TECHNOLOGY (BSJPHARMA) …, priority 2021, published 2025).
